Measured values as given in PubChem BioAssay (NCI).
“And” between values parts separate entries of the source, which are not always exact repeats. Equal entries are not always repeated.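 Dose response: 5 concentrations. Exposure: 48 h. Format: 96-well plates. Endpoint: linear interpolation; highest concentration if not reached. GI50: concentration for 50% inhibition of growth. The concentration for full growth arrest is given as TGI.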

Key:
Test in all cases: DTP human tumour cell line panel, 48 h
[1] = tested on: SK-MEL-28 melanoma
[2] = tested on: RPMI-8226 leukemia
[3] = tested on: SN12C renal
[4] = tested on: HL-60(TB) leukemia
[5] = tested on: IGROV1 ovarian
[6] = tested on: KM12 colon
[7] = tested on: OVCAR-5 ovarian
[8] = tested on: SNB-19 CNS
[9] = tested on: OVCAR-8 ovarian
[10] = tested on: LOX IMVI melanoma

| SMILES | TGI [1] | TGI [2] | TGI [3] | TGI [4] | TGI [5] | TGI [6] | TGI [7] | TGI [8] | TGI [9] | TGI [10] | GI50 [2] | GI50 [4] | GI50 [1] | GI50 [8] |
| --- | --- | --- | --- | --- | --- | --- | --- | --- | --- | --- | --- | --- | --- | --- |
| COc1ncc(C#CC(=O)c2ccccc2OC)c(OC)n1 | 8.06 µM | 9.65 µM | 1.91 µM | 4.63 µM | 3.98 µM | 18.4 µM | 8.23 µM | 29.3 µM | 5.05 µM | 0.794 µM | – | – | – | – |
| O=C1NC(N/N=C/C(O)C(O)C(O)C(O)CO)=N/C1=C\c1cccs1 (stereo not drawn) | > 100 µM | > 100 µM | > 100 µM | > 100 µM | > 100 µM | > 100 µM | > 100 µM | > 100 µM | > 100 µM | > 100 µM | – | – | – | – |
| NNC(=O)CCCCCCCC(=O)O | > 100 µM | > 100 µM | > 100 µM | > 100 µM | > 100 µM | > 100 µM | > 100 µM | > 100 µM | > 100 µM | > 100 µM | – | – | – | – |
| C=CCOc1ccc(C2c3c([nH][nH]c3=O)CC(C)(O)C2C(=O)OC)cc1OC (stereo not drawn) | > 100 µM | > 100 µM | > 100 µM | > 100 µM | > 100 µM | > 100 µM | > 100 µM | > 100 µM | > 100 µM | > 100 µM | – | – | – | – |
| C=C1CC(CNc2cc(Cl)nc(N)n2)C1 | > 100 µM | > 100 µM | > 100 µM | > 100 µM | > 100 µM | > 100 µM | > 100 µM | > 100 µM | > 100 µM | > 100 µM | – | – | – | – |
| COC(=O)CC1(O)C(C=C(C)C)C(C(=O)OC)C(=O)C(C(=O)OC)C1C(=O)OC (stereo not drawn) | > 100 µM | > 100 µM | > 100 µM | > 100 µM | > 100 µM | > 100 µM | > 100 µM | > 100 µM | > 100 µM | > 100 µM | – | – | – | – |
| C/C=C/[C@@H]1O[C@H](CC#C[Si](C)(C)C)[C@@]2(C=O)C(C)=CC[C@H](C(C)C)[C@@H]12 | 47.8 µM | 52.2 µM | 34.8 µM | 19.2 µM | 10.7 µM | 40.8 µM | 40.2 µM | 62.3 µM | > 100 µM | 18.2 µM | – | – | – | – |
| CC(=O)/C=C/c1c[nH]c(=O)[nH]c1=O | 504 µM | 679 µM | 573 µM | 528 µM | 861 µM | 439 µM | 618 µM | 903 µM | 873 µM | 354 µM | – | – | – | – |
| CC1(C)OC[C@@]2([C@@H]3CC[C@@H](C3)C2(C)C)N1O | > 100 µM | > 100 µM | > 100 µM | > 100 µM | > 100 µM | > 100 µM | > 100 µM | > 100 µM | > 100 µM | > 100 µM | – | – | – | – |
| CC1CSc2nc3[nH]c(=S)[nH]c3c(=O)n2C1 (stereo not drawn) | > 100 µM | > 100 µM | > 100 µM | > 100 µM | > 100 µM | > 100 µM | > 100 µM | > 100 µM | > 100 µM | > 100 µM | – | – | – | – |
| CCOC(=O)NNC1(SC)NC(=O)c2c(cc(Cl)oc2=O)O1 (stereo not drawn) | 10.5 µM | 7.65 µM | 14.7 µM | 3.6 µM | 14.5 µM | 23.6 µM | 25.2 µM | 25.4 µM | 5.56 µM | 6.18 µM | – | – | – | – |
| CC1(C)N=C(N)N=C(N)N1c1ccc(CCCCc2ccc(Cl)cc2Cl)cc1 | 19.2 µM | 19.2 µM | 12.7 µM | > 100 µM | 10 µM | 2.19 µM | 20.9 µM | 11 µM | 16.1 µM | 16.4 µM | – | – | – | – |
| CC(C)(N=NC(C)(C)C1=NCCN1)C1=NCCN1 | > 100 µM | > 100 µM | > 100 µM | > 100 µM | > 100 µM | > 100 µM | > 100 µM | > 100 µM | > 100 µM | > 100 µM | > 100 µM | > 100 µM | – | – |
| Cc1ccnc2c1c(=O)c1ccccc1n2C | > 100 µM | > 100 µM | > 100 µM | > 100 µM | > 100 µM | > 100 µM | > 100 µM | > 100 µM | > 100 µM | > 100 µM | – | – | – | – |
| CNC(=O)CNC(=O)CCC(=O)N(C)C | > 100 µM | > 100 µM | > 100 µM | > 100 µM | > 100 µM | > 100 µM | > 100 µM | > 100 µM | > 100 µM | > 100 µM | – | – | – | – |
| C/C(=C1/N=C(c2cc([N+](=O)[O-])ccc2Cl)N(C2=CC=C(Cl)CC2)C1=O)c1cc2ccccc2oc1=O | > 100 µM | > 100 µM | > 100 µM | > 100 µM | > 100 µM | > 100 µM | > 100 µM | > 100 µM | > 100 µM | > 100 µM | – | – | – | – |
| CCOC(=O)CC[C@@H](NC(=O)c1ccc(NCc2ccc3nc(OC)c(OC)nc3c2)cc1)C(=O)OCC | 22.8 µM | > 100 µM | > 100 µM | > 100 µM | 56.7 µM | > 100 µM | > 100 µM | > 100 µM | > 100 µM | > 100 µM | – | – | – | – |
| O=[N+]([O-])c1cccc2nc3ccccc3c(NCCNCCO)c12 | 0.177 µM and 0.202 µM | 0.0602 µM and 0.0646 µM | 0.173 µM | 0.109 µM | 0.0233 µM and 0.0569 µM | 0.0277 µM and 0.0202 µM | 0.088 µM and 0.0672 µM | – | 0.158 µM and 0.0328 µM | 0.0184 µM and 0.112 µM | – | – | 0.0239 µM | 0.0102 µM |
| C#CCSc1cnc2ccccc2c1Sc1c[nH]c2ccccc2c1=O | > 100 µM | > 100 µM | 40.7 µM | 88.9 µM | 20 µM | 65 µM | > 100 µM | > 100 µM | > 100 µM | 38.9 µM | – | – | – | – |
| COc1ccc2c(-c3ccc(O)cc3)c(Oc3ccccc3)c(=O)oc2c1 | > 100 µM | > 100 µM | > 42.1 µM | > 100 µM | > 62.3 µM | > 100 µM | > 100 µM | > 53.7 µM | > 100 µM | > 100 µM | – | – | – | – |
| COc1ccc(C2c3cc4c(cc3OC(N3CCOCC3)C2C)OCO4)c(OC)c1 (stereo not drawn) | 29.8 µM | 19.9 µM | 65.9 µM | > 31.4 µM | > 100 µM | 34 µM | 73.9 µM | 28.9 µM | > 74.7 µM | 23.8 µM | – | – | – | – |
| COC(=O)c1ccc(NCC2=CC(=O)c3ccccc3C2=O)cc1 | 33.8 µM | > 26.5 µM | 59.3 µM | > 25.9 µM | 30.2 µM | 33 µM | 49.5 µM | 99.7 µM | > 100 µM | 23.3 µM | – | – | – | – |
| CCOC(=O)C1(Cc2ccccc2)CCN(C(=O)c2ccccc2)C2C1C2(Cl)Cl (stereo not drawn) | 51.6 µM | 38.2 µM | 32.4 µM | 32.6 µM | > 100 µM | 94.9 µM | 98.4 µM | > 100 µM | 77.4 µM | 34.5 µM | – | – | – | – |
| CC1(C)OC2CN(C(=O)OCc3ccccc3)C(CO)C2O1 (stereo not drawn) | > 100 µM | > 100 µM | > 100 µM | > 100 µM | > 100 µM | > 100 µM | > 100 µM | > 100 µM | > 100 µM | > 100 µM | – | – | – | – |
| COc1cc(/C=C2\CCc3cc(OC)c(OC)cc3C2=O)cc(OC)c1 | > 100 µM | > 60.1 µM | 38.2 µM | > 24 µM | > 100 µM | > 51.7 µM | 99.3 µM | > 100 µM | > 52 µM | 30.9 µM | – | – | – | – |
| O=[N+]([O-])/C(C(Cl)=C(Cl)Cl)=C(/Sc1ccccc1)N1CCOCC1 | 17.6 µM | 5.73 µM | 19.3 µM | 4.51 µM | 11.1 µM | 32.7 µM | 31 µM | 20.2 µM | 4.06 µM | 3.04 µM | – | – | – | – |
| CNC=O | > 10000 µM | > 10000 µM | > 7740 µM | > 10000 µM | > 10000 µM | > 10000 µM | > 10000 µM | > 10000 µM | > 10000 µM | > 10000 µM | – | – | – | – |
